Results as given in the NIST ThermoML archive (doi:10.1016/j.jct.2012.08.021).

Experiment: xn = mol fraction of the nth substance listed
Conditions: 101 kPa, Liquid, Vibrating tube method

CN(CCO)CCO [N-methyldiethanolamine] + C[S+](C)[O-]
Conditions	mass density [kg/m3]
293.14 K, x1 = 0.5998	1053.8
293.15 K, x1 = 0.1002	1089.57
293.15 K, x1 = 0.2	1079.89
293.15 K, x1 = 0.3001	1071.58
293.15 K, x1 = 0.4001	1064.66
293.15 K, x1 = 0.5002	1058.74
293.15 K, x1 = 0.7002	1049.58
293.15 K, x1 = 0.7998	1046.1
293.15 K, x1 = 0.8998	1043.37
293.15 K, x1 = 1	1040.6
303.14 K, x1 = 0.4001	1056.1
303.14 K, x1 = 0.5998	1045.65
303.15 K, x1 = 0.1002	1080.03
303.15 K, x1 = 0.2	1070.75
303.15 K, x1 = 0.3001	1062.76
303.15 K, x1 = 0.5002	1050.39
303.15 K, x1 = 0.7002	1041.61
303.15 K, x1 = 0.7998	1038.28
303.15 K, x1 = 0.8998	1035.67
303.15 K, x1 = 1	1033.02
313.14 K, x1 = 0.4001	1047.54
313.14 K, x1 = 0.5998	1037.49
313.15 K, x1 = 0.1002	1070.49
313.15 K, x1 = 0.2	1061.61
313.15 K, x1 = 0.3001	1053.94
313.15 K, x1 = 0.5002	1042.06
313.15 K, x1 = 0.7002	1033.61
313.15 K, x1 = 0.7998	1030.42
313.15 K, x1 = 0.8998	1027.95
313.15 K, x1 = 1	1025.4
323.14 K, x1 = 0.4001	1038.99
323.14 K, x1 = 0.5998	1029.33
323.15 K, x1 = 0.1002	1060.95
323.15 K, x1 = 0.2	1052.47
323.15 K, x1 = 0.3001	1045.11
323.15 K, x1 = 0.5002	1033.71
323.15 K, x1 = 0.7002	1025.6
323.15 K, x1 = 0.7998	1022.53
323.15 K, x1 = 0.8998	1020.18
323.15 K, x1 = 1	1017.74
333.14 K, x1 = 0.4001	1030.43
333.14 K, x1 = 0.5998	1021.15
333.15 K, x1 = 0.1002	1051.41
333.15 K, x1 = 0.2	1043.33
333.15 K, x1 = 0.3001	1036.29
333.15 K, x1 = 0.5002	1025.37
333.15 K, x1 = 0.7002	1017.56
333.15 K, x1 = 0.7998	1014.63
333.15 K, x1 = 0.8998	1012.37
333.15 K, x1 = 1	1010.03
343.14 K, x1 = 0.4001	1021.86
343.14 K, x1 = 0.5002	1017.01
343.14 K, x1 = 0.5998	1012.95
343.15 K, x1 = 0.1002	1041.86
343.15 K, x1 = 0.2	1034.18
343.15 K, x1 = 0.3001	1027.48
343.15 K, x1 = 0.7002	1009.51
343.15 K, x1 = 0.7998	1006.67
343.15 K, x1 = 0.8998	1004.51
343.15 K, x1 = 1	1002.25
353.14 K, x1 = 0.1002	1032.29
353.14 K, x1 = 0.4001	1013.27
353.14 K, x1 = 0.5002	1008.63
353.14 K, x1 = 0.5998	1004.72
353.14 K, x1 = 0.8998	996.587
353.14 K, x1 = 1	994.404
353.15 K, x1 = 0.2	1025.01
353.15 K, x1 = 0.7002	1001.4
353.16 K, x1 = 0.3001	1018.62
353.16 K, x1 = 0.7998	998.661
363.14 K, x1 = 0.1002	1022.7
363.14 K, x1 = 0.2	1015.82
363.14 K, x1 = 0.3001	1009.77
363.14 K, x1 = 0.5002	1000.22
363.14 K, x1 = 0.7002	993.263
363.14 K, x1 = 0.7998	990.621
363.14 K, x1 = 0.8998	988.594
363.15 K, x1 = 0.4001	1004.65
363.15 K, x1 = 0.5998	996.455
363.15 K, x1 = 1	986.471

OCCNCCO [diethanolamine] + C[S+](C)[O-]
Conditions	mass density [kg/m3]
293.14 K, x1 = 0.9002	1097.48
293.15 K, x1 = 0.1002	1098.86
293.15 K, x1 = 0.1999	1097.33
293.15 K, x1 = 0.2998	1096.58
293.15 K, x1 = 0.4001	1096.23
293.15 K, x1 = 0.5001	1096.24
293.15 K, x1 = 0.6	1096.29
293.15 K, x1 = 0.7002	1096.88
293.15 K, x1 = 0.8001	1097.24
293.15 K, x1 = 1	1097.61
303.14 K, x1 = 0.4001	1087.87
303.14 K, x1 = 0.9002	1090.69
303.15 K, x1 = 0.1002	1089.38
303.15 K, x1 = 0.1999	1088.26
303.15 K, x1 = 0.2998	1087.88
303.15 K, x1 = 0.5001	1088.23
303.15 K, x1 = 0.6	1088.59
303.15 K, x1 = 0.7002	1089.43
303.15 K, x1 = 0.8001	1090.11
303.15 K, x1 = 1	1091.17
313.14 K, x1 = 0.4001	1079.49
313.15 K, x1 = 0.1002	1079.89
313.15 K, x1 = 0.1999	1079.19
313.15 K, x1 = 0.2998	1079.18
313.15 K, x1 = 0.5001	1080.19
313.15 K, x1 = 0.6	1080.87
313.15 K, x1 = 0.7002	1081.97
313.15 K, x1 = 0.8001	1082.9
313.15 K, x1 = 0.9002	1083.77
313.15 K, x1 = 1	1084.6
323.14 K, x1 = 0.4001	1071.1
323.15 K, x1 = 0.1002	1070.39
323.15 K, x1 = 0.1999	1070.11
323.15 K, x1 = 0.2998	1070.46
323.15 K, x1 = 0.5001	1072.12
323.15 K, x1 = 0.6	1073.1
323.15 K, x1 = 0.7002	1074.48
323.15 K, x1 = 0.9002	1076.8
323.15 K, x1 = 1	1077.88
323.16 K, x1 = 0.8001	1075.68
333.14 K, x1 = 1	1071.11
333.15 K, x1 = 0.1002	1060.89
333.15 K, x1 = 0.1999	1061.01
333.15 K, x1 = 0.2998	1061.72
333.15 K, x1 = 0.4001	1062.67
333.15 K, x1 = 0.5001	1064.01
333.15 K, x1 = 0.6	1065.3
333.15 K, x1 = 0.7002	1066.94
333.15 K, x1 = 0.8001	1068.41
333.15 K, x1 = 0.9002	1069.78
343.14 K, x1 = 0.4001	1054.22
343.14 K, x1 = 0.9002	1062.69
343.14 K, x1 = 1	1064.25
343.15 K, x1 = 0.1002	1051.36
343.15 K, x1 = 0.1999	1051.9
343.15 K, x1 = 0.2998	1052.96
343.15 K, x1 = 0.5001	1055.86
343.15 K, x1 = 0.6	1057.43
343.15 K, x1 = 0.7002	1059.34
343.15 K, x1 = 0.8001	1061.08
353.14 K, x1 = 0.1999	1042.77
353.14 K, x1 = 0.5001	1047.65
353.14 K, x1 = 0.7002	1051.66
353.14 K, x1 = 0.9002	1055.5
353.14 K, x1 = 1	1057.31
353.15 K, x1 = 0.1002	1041.8
353.15 K, x1 = 0.2998	1044.16
353.15 K, x1 = 0.4001	1045.72
353.15 K, x1 = 0.6	1049.5
353.15 K, x1 = 0.8001	1053.64
363.14 K, x1 = 0.1002	1032.21
363.14 K, x1 = 0.1999	1033.59
363.14 K, x1 = 0.2998	1035.35
363.14 K, x1 = 0.6	1041.5
363.14 K, x1 = 0.7002	1043.89
363.14 K, x1 = 0.8001	1046.12
363.14 K, x1 = 0.9002	1048.21
363.15 K, x1 = 0.4001	1037.18
363.15 K, x1 = 0.5001	1039.38
363.15 K, x1 = 1	1050.24
